# Reference: ChEMBL document CHEMBL1671858, “Coprevalence of plasmid-mediated quinolone resistance determinants QepA, Qnr, and AAC(6')-Ib-cr among 16S rRNA methylase RmtB-producing Escherichia coli isolates from pigs” (2008)
# Tests used:
# Format in all cases: functional
# Escherichia coli [1] = test: Antimicrobial activity against Escherichia coli isolate GZ3 transconjugant harboring 16S rRNA methylase RmtB and qepA by agar dilution method relative to recipient strain
# Escherichia coli [2] = test: Antimicrobial activity against Escherichia coli isolate GZ4 transconjugant harboring 16S rRNA methylase RmtB and qepA by agar dilution method relative to recipient strain
# Escherichia coli [3] = test: Antimicrobial activity against Escherichia coli isolate GZ5 transconjugant harboring 16S rRNA methylase RmtB and qepA by agar dilution method relative to recipient strain
# Escherichia coli [4] = test: Antimicrobial activity against Escherichia coli isolate GZ6 transconjugant harboring 16S rRNA methylase RmtB and qepA by agar dilution method relative to recipient strain
# Escherichia coli [5] = test: Antimicrobial activity against Escherichia coli isolate GZ8 transconjugant harboring 16S rRNA methylase RmtB and qepA by agar dilution method relative to recipient strain
# Escherichia coli [6] = test: Antimicrobial activity against Escherichia coli isolate GZ9 transconjugant harboring 16S rRNA methylase RmtB and qepA by agar dilution method relative to recipient strain
# Escherichia coli [7] = test: Antimicrobial activity against Escherichia coli isolate GZ11 transconjugant harboring 16S rRNA methylase RmtB and qepA by agar dilution method relative to recipient strain
# Escherichia coli [8] = test: Antimicrobial activity against Escherichia coli isolate GZ12 transconjugant harboring 16S rRNA methylase RmtB and qepA by agar dilution method relative to recipient strain
# Escherichia coli [9] = test: Antimicrobial activity against Escherichia coli isolate GZ13 transconjugant harboring 16S rRNA methylase RmtB and qepA by agar dilution method relative to recipient strain
# Escherichia coli [10] = test: Antimicrobial activity against Escherichia coli isolate GZ14 transconjugant harboring 16S rRNA methylase RmtB and qepA by agar dilution method relative to recipient strain
# Escherichia coli [11] = test: Antimicrobial activity against Escherichia coli isolate GZ15 transconjugant harboring 16S rRNA methylase RmtB and qepA by agar dilution method relative to recipient strain
# Escherichia coli [12] = test: Antimicrobial activity against Escherichia coli isolate GZ16 transconjugant harboring 16S rRNA methylase RmtB and qepA by agar dilution method relative to recipient strain
# Escherichia coli [13] = test: Antimicrobial activity against Escherichia coli isolate CQ15 transconjugant harboring 16S rRNA methylase RmtB and qepA by agar dilution method relative to recipient strain
# Escherichia coli [14] = test: Antimicrobial activity against Escherichia coli isolate CQ18 transconjugant harboring 16S rRNA methylase RmtB and qepA by agar dilution method relative to recipient strain
# Escherichia coli [15] = test: Antimicrobial activity against Escherichia coli isolate CQ2 transconjugant harboring 16S rRNA methylase RmtB and qepA by agar dilution method relative to recipient strain
# Escherichia coli [16] = test: Antimicrobial activity against Escherichia coli isolate CQ5 transconjugant harboring 16S rRNA methylase RmtB and qepA by agar dilution method relative to recipient strain
# Escherichia coli [17] = test: Antimicrobial activity against Escherichia coli isolate CQ4 transconjugant harboring 16S rRNA methylase RmtB and qepA by agar dilution method relative to recipient strain
# Escherichia coli [18] = test: Antimicrobial activity against Escherichia coli isolate CQ20 transconjugant harboring 16S rRNA methylase RmtB and qepA by agar dilution method relative to recipient strain
# Escherichia coli [19] = test: Antimicrobial activity against Escherichia coli isolate CQ26 transconjugant harboring 16S rRNA methylase RmtB and qepA by agar dilution method relative to recipient strain
# Escherichia coli [20] = test: Antimicrobial activity against Escherichia coli isolate CQ10 transconjugant harboring 16S rRNA methylase RmtB and qepA by agar dilution method relative to recipient strain
# Escherichia coli [21] = test: Antimicrobial activity against Escherichia coli isolate CQ14 transconjugant harboring 16S rRNA methylase RmtB and qepA by agar dilution method relative to recipient strain
# Escherichia coli [22] = test: Antimicrobial activity against Escherichia coli isolate GZ7 transconjugant harboring 16S rRNA methylase RmtB and qepA and qnrS1 by agar dilution method relative to recipient strain
# Escherichia coli [23] = test: Antimicrobial activity against Escherichia coli isolate GZ1 transconjugant harboring 16S rRNA methylase RmtB and qnrS1 by agar dilution method relative to recipient strain
# Escherichia coli [24] = test: Antimicrobial activity against Escherichia coli isolate GZ2 transconjugant harboring 16S rRNA methylase RmtB and qnrS1 by agar dilution method relative to recipient strain
# Escherichia coli [25] = test: Antimicrobial activity against Escherichia coli isolate CQ22 transconjugant harboring 16S rRNA methylase RmtB and qnrS1 by agar dilution method relative to recipient strain
# Escherichia coli [26] = test: Antimicrobial activity against Escherichia coli isolate CQ13 transconjugant harboring 16S rRNA methylase RmtB and qnrS1 by agar dilution method relative to recipient strain
# Escherichia coli [27] = test: Antimicrobial activity against Escherichia coli isolate CQ6 transconjugant harboring 16S rRNA methylase RmtB and qepA, qnrS2, aac(6')-Ib-cr gene by agar dilution method relative to recipient strain
# Escherichia coli [28] = test: Antimicrobial activity against Escherichia coli isolate CQ7 transconjugant harboring 16S rRNA methylase RmtB and qepA, qnrS2, aac(6')-Ib-cr gene by agar dilution method relative to recipient strain
# Escherichia coli [29] = test: Antimicrobial activity against Escherichia coli isolate CQ12 transconjugant harboring 16S rRNA methylase RmtB and qepA, qnrS2, aac(6')-Ib-cr gene by agar dilution method relative to recipient strain
# Escherichia coli [30] = test: Antimicrobial activity against Escherichia coli isolate CQ16 transconjugant harboring 16S rRNA methylase RmtB and qepA, qnrS2, aac(6')-Ib-cr gene by agar dilution method relative to recipient strain
# Escherichia coli [31] = test: Antimicrobial activity against Escherichia coli isolate GZ10 transconjugant harboring 16S rRNA methylase RmtB and qepA, aac(6')-Ib-cr gene by agar dilution method relative to recipient strain
# Escherichia coli [32] = test: Antimicrobial activity against Escherichia coli isolate CQ19 transconjugant harboring 16S rRNA methylase RmtB and qepA, aac(6')-Ib-cr gene by agar dilution method relative to recipient strain
# Escherichia coli [33] = test: Antimicrobial activity against Escherichia coli isolate CQ1 transconjugant harboring 16S rRNA methylase RmtB and qnrB6 by agar dilution method relative to recipient strain
SMILES,fold change (FC) (Escherichia coli [1]),fold change (FC) (Escherichia coli [2]),fold change (FC) (Escherichia coli [3]),fold change (FC) (Escherichia coli [4]),fold change (FC) (Escherichia coli [5]),fold change (FC) (Escherichia coli [6]),fold change (FC) (Escherichia coli [7]),fold change (FC) (Escherichia coli [8]),fold change (FC) (Escherichia coli [9]),fold change (FC) (Escherichia coli [10]),fold change (FC) (Escherichia coli [11]),fold change (FC) (Escherichia coli [12]),fold change (FC) (Escherichia coli [13]),fold change (FC) (Escherichia coli [14]),fold change (FC) (Escherichia coli [15]),fold change (FC) (Escherichia coli [16]),fold change (FC) (Escherichia coli [17]),fold change (FC) (Escherichia coli [18]),fold change (FC) (Escherichia coli [19]),fold change (FC) (Escherichia coli [20]),also measured
C[C@H]1COc2c(N3CCN(C)CC3)c(F)cc3c(=O)c(C(=O)O)cn1c23.C[C@H]1COc2c(N3CCN(C)CC3)c(F)cc3c(=O)c(C(=O)O)cn1c23.O [LEVOFLOXACIN],2,2,2,4,1,2,2,8,2,4,2,4,1,1,4,1,1,2,1,2,fold change (FC) (Escherichia coli [21]): 2; fold change (FC) (Escherichia coli [22]): 1; fold change (FC) (Escherichia coli [23]): 4; fold change (FC) (Escherichia coli [24]): 2; fold change (FC) (Escherichia coli [25]): 1; fold change (FC) (Escherichia coli [26]): 4; fold change (FC) (Escherichia coli [27]): 4; fold change (FC) (Escherichia coli [28]): 1; fold change (FC) (Escherichia coli [29]): 2; fold change (FC) (Escherichia coli [30]): 2; fold change (FC) (Escherichia coli [31]): 4; fold change (FC) (Escherichia coli [32]): 1; fold change (FC) (Escherichia coli [33]): 1
CCn1cc(C(=O)O)c(=O)c2ccc(C)nc21 [NALIDIXIC ACID],8,2,1,1,4,4,2,1,4,1,1,2,1,1,1,1,2,1,1,1,fold change (FC) (Escherichia coli [21]): 1; fold change (FC) (Escherichia coli [22]): 16; fold change (FC) (Escherichia coli [23]): 4; fold change (FC) (Escherichia coli [24]): 4; fold change (FC) (Escherichia coli [25]): 1; fold change (FC) (Escherichia coli [26]): 4; fold change (FC) (Escherichia coli [27]): 16; fold change (FC) (Escherichia coli [28]): 1; fold change (FC) (Escherichia coli [29]): 1; fold change (FC) (Escherichia coli [30]): 2; fold change (FC) (Escherichia coli [31]): 16; fold change (FC) (Escherichia coli [32]): 1; fold change (FC) (Escherichia coli [33]): 2
CCn1cc(C(=O)O)c(=O)c2cc(F)c(N3CCNCC3)cc21 [NORFLOXACIN],16,4,16,8,8,16,4,16,8,16,4,8,8,8,16,16,2,4,4,32,fold change (FC) (Escherichia coli [21]): 32; fold change (FC) (Escherichia coli [22]): 16; fold change (FC) (Escherichia coli [23]): 16; fold change (FC) (Escherichia coli [24]): 2; fold change (FC) (Escherichia coli [25]): 2; fold change (FC) (Escherichia coli [26]): 4; fold change (FC) (Escherichia coli [27]): 16; fold change (FC) (Escherichia coli [28]): 16; fold change (FC) (Escherichia coli [29]): 16; fold change (FC) (Escherichia coli [30]): 16; fold change (FC) (Escherichia coli [31]): 16; fold change (FC) (Escherichia coli [32]): 16; fold change (FC) (Escherichia coli [33]): 2
